US20210268030A1, “FIBROADIPOGENIC PROGENITOR-DERIVED EXOSOMES FOR REGENERATION OF DYSTROPHIC MUSCLES” (EXOFIX S.R.L., priority 2018, published 2021)

Columns and labels:
mdx mice = details: young vs old mdx mice; Mozzetta et al. 2013, Saccone et al. 2014; cited from earlier work
CD63 = assay: In situ immunofluorescence for CD63 on muscle sections; format: in vivo, mdx mice
Experimental: (§1) Animals were used at the specified age and treated for the indicated periods with daily intra peritoneal injections of Trichostatin A, TSA (0.6 mg/kg/day; #T8552, Sigma), dissolved in phospate-saline solution or in phospate-saline alone as vehicle control (CTR). Muscle injury was performed by intramuscular injection in Tibliais Anterior (TA) of Cardiotoxin—CTX− (10 μM, 10 mg/mL) (#L8102, Lotaxan Valence, France, http://www.latoxan.com), 3 days before mice sacrifice.
For immunofluorescence analysis, cryo-sections and cells were fixed in 4% PFA for 10 min and permeabilized with 100% cold acetone (#32201, Sigma) for 6 min at −20° C. or 100% cold Methanol (#32213, Sigma) for 6 min at −20° or with 0.25% Triton for 15 min at RT. Muscle sections were blocked for 1 h with a solution containing 4% BSA (#A7030, Sigma) in PBS. […] Sections were incubated with DAPI in PBS for 5 minutes for nuclear staining, washed in PBS, and mounted with glycerol 3:1 in PBS. […]

miR-206 [1] = assay: qPCR of exosomal miR-206 from dissociated tibialis anterior muscles; format: in vivo, mdx mice; details: TSA-treated mdx muscle compared to untreated control
Experimental: Exosomes were purified from tibialis anterior gently dissociated in serum-free DMEM (24 h). Cell debris and organelles were eliminated by centrifugation at 2,000 g for 20 min and exosomes were isolated using TEIR.
For microRNA validation, Total exosomal RNA was extracted with Total Exosome RNA Protein Isolation Kit (#4478545, Invitrogen by Thermo Fisher Scientific) and was retro-transcribed using the Qiagen reverse transcription kit (miScript II RT Kit, #218161, Qiagen) and pre-amplified using (miScript PreAMP PCR Kit, #331451, Qiagen).
All the conditions are provided in the manufacturer protocol.
(§2) Of note, transgenic miR-206 upregulation has been exploited as tool for the treatment of DMD and other muscular disorders (Liu et al., 2012; Williams et al., 2009; Fry et al., 2017). […] The same pattern could be observed in mdx mice, in which an abundant miR-206 signal was detected in the interstitium of tibialis anterior muscles, overlapping with the immunofluorescence staining of the FAP's marker Sca-1 (FIG. 3H). […] We performed a quantitative assessment of exosomal miR-206, by isolating whole tibialis anterior (TA) muscles from TSA-treated mdx muscle or untreated control mdx mice, followed by gentle dissociation and exosome isolation.

miR-206 [2] = assay: miR-206 in situ hybridization of tibialis anterior sections; format: in vivo; details: young mdx mice (1.5 months of age)
Experimental: as §1, with “sacrifice. […]” for “sacrifice.”
as §2

Compound: CC(/C=C/C(=O)NO)=C\[C@@H](C)C(=O)c1ccc(N(C)C)cc1 [TSA, Trichostatin A]
- regeneration (mdx mice): promotes regeneration in young, but not old
- CD63 signal in the interstitium of muscles (CD63; 1 year-old mdx mice): could not increase
- CD63-positive interstitial signal (CD63; mdx young mice (1.5-month), compared to young mdx CTR): significant increase
- increase of miR-206 (miR-206 [1]): ~7 fold
- amount of interstitial miR-206 signal associated with Sca-1 staining (miR-206 [2]): increased
